Test results from publication PMC12670405, “Second-Generation AURKA-Targeting PROTACs: Structural Optimization toward in Vivo Degradation in Neuroblastoma” (Journal of Medicinal Chemistry, 2025).

Key:
[1] = target: T1, NanoLuc-AURKA (Homo sapiens, UniProt O14965); assay: NanoBRET target engagement, live (intact) cells; assay type: cell-based; details: intact HEK293T
T1 construct: Plasmids encoding full-length wild-type AURKA fused to Nano-Luc; host or cells: HEK293T
T1 sequence (O14965 1-403): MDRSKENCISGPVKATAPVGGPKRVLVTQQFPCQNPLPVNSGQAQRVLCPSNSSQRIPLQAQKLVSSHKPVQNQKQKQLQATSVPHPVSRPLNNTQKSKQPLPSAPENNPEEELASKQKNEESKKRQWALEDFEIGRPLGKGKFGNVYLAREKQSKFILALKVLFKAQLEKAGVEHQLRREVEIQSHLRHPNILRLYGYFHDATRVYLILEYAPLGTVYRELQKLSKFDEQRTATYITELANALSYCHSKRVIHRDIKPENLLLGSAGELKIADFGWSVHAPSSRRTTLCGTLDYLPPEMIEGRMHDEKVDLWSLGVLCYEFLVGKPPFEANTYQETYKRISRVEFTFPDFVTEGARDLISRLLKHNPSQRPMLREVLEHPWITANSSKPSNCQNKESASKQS
Procedure: (§1) The NanoBRET Target Engagement Assay (Promega) was performed according to the recommended instructions from the manufacturer. Plasmids encoding full-length wild-type AURKA fused to Nano-Luc via AURKA’s C-terminus (Promega, #NV1041) were transfected into HEK293T cells using FuGENE HD (Promega, #E2312). […] The plate was mixed at 900 rpm for 15 s, using an orbital shaker. For the permeabilized-mode, digitonin (Sigma-Aldrich, #D141) was additionally added at a final concentration of 50 μg/mL. Test compounds were subsequently administered in duplicate using the D300e digital dispenser (Tecan), followed by incubation for 2 h (37 °C, 5% CO2). To measure BRET, nanoglo substrate and extracellular nanoluc inhibitor (only in live-mode) (Promega #N2540) were added, and luminescence was measured using the GloMax Discover Microplate Reader (Promega) with a luminescence filter pair of 450 nm (BP filter, donor) and 600 nm (LP filter, acceptor). The NanoBRET ratio was calculated using the following formula: BRET ratio = 1000*[(acceptor signal/donor signal)with tracer – (acceptor signal/donor signal)no tracer]. Relative BRET ratios (%) were generated by normalizing to the negative DMSO control. The experiment was performed once with 2 replicate samples.
(§2) All dose–response curves were computed on GraphPad Prism using the Variable Slope (four parameters) equation. Absolute half-maximal degradation (DC50), growth inhibitory (GI50) and enzymatic inhibitory (IC50) concentrations, as well as inhibition constants (Ki) were derived from dose–response curves via interpolation. Statistical tests were performed on GraphPad Prism and detailed in the figure legends. Unless otherwise stated, “n” in the figure legends indicates the number of independent experiments conducted at different times.

[2] = target: T1, NanoLuc-AURKA; assay: NanoBRET target engagement, permeabilized mode; assay type: binding; details: permeabilized HEK293T; read-out: NanoBRET IC50, tracer displacement from NanoLuc-AURKA
Procedure: as §1, §2

[3] = target: T2, AURKA (Homo sapiens, UniProt O14965); assay: In vivo pharmacodynamics study, IMR-32 cell line-derived xenograft, Western blot; design: from tissue; host or cells: IMR-32 cell line-derived xenograft tumours, BALB/c nude mice; species or system BALB/c nude mice; details: for AURKA protein reduction in tumor (in words): single IP dose 15 mg/kg; for AURKA protein levels in tumor (in words): single IV dose 15 mg/kg
T2 sequence (O14965 1-403): T1 sequence (O14965 1-403)
Procedure: Protein lysates were denatured through addition of Laemmli buffer supplemented with β-mercaptoethanol (Sigma-Aldrich, #M6250) heated at 95 °C for 10 min. […] The ladder used was the PageRuler Prestained Protein Ladder (Thermo Fisher Scientific, #26617). Afterward, proteins were blotted on nitrocellulose membranes (Bio-Rad, #162-0233) by running at 100 V for 1 h with a buffer containing 10% 10× Tris/glycine (Bio-Rad, #161-0771) and 20% methanol (Thermo Fisher Scientific, #0390D). Ponceau staining was used for confirmation of protein transfer. Membranes were blocked in 5% milk/TBST or 5% BSA/TBST for 1 h at room temperature and subsequently incubated with primary antibodies overnight at 4 °C. Blots were washed 3× for 5 min each with TBST prior to incubation with secondary antibodies for 1 h at room temperature. Visualization of the blots was done using WestDura or WestFemto (Thermo Fisher Scientific, #34096, #34076) with the Amersham Imager 680 (BIOKÉ). Blots were stripped using the Restore Stripping Buffer (Thermo Fisher Scientific, #21059) prior to detection of additional proteins. Images were compiled and quantified using Sciugo (https://sciugo.com/). Per lane, quantified data were always normalized to that of the loading control (Vinculin or GAPDH), prior to calculating fold changes. Mean fold changes are calculated from 3 individual experiments. A list of the primary and secondary antibodies used can be found in the Supporting Information (Supplementary Table S7).
Both the in vivo pharmacokinetics and in vivo pharmacodynamics studies were performed by Eurofins Pharmacology Discovery Services. All mice were provided by BioLasco Taiwan (under Charles River Laboratories Licensee). Animals were acclimated for 3 days prior to use and were confirmed to be in good health. All aspects of this work including housing, experimentation, and animal disposal were performed in general accordance with the “Guide for the Care and Use of Laboratory Animals: Eighth Edition” (National Academies Press, Washington, DC. 2011) in a AAALAC-accredited laboratory animal facility. In addition, the animal care and use protocol was reviewed and approved by the IACUC at Eurofins Pharmacology Discovery Services; IN020-08202020 and ON002-07142023.
Six-week old female BALB/c nude mice were subcutaneously implanted with viable IMR-32 cells formulated in 50% Matrigel into the right flank (1 × 10^7 cells/mouse, in 0.2 mL volume). Palpable tumor volumes were measured with a caliper and calculated according to the prolate ellipsoid formula: tumor volume = length × width^2 × 0.5. When the mean tumor volume reached ∼250 mm^3, animals were randomized into groups (0, 4, 8, 24 h) with 3 animals per group. […] Other groups were given a single IV or IP administration of SK5527 or SK4454 at 15 mg/kg (dissolved in 5% DMSO/5% Solutol HS15/90% PBS). Tumors were subsequently harvested at the respective time points, snap-frozen in liquid nitrogen, and kept frozen at −70 °C until further processing. Upon receipt of the samples in our lab, we mechanically digested and lysed tumor pieces by adding cold RIPA lysis buffer (with protease and phosphatase inhibitors as previously described) and Stainless Steel Beads (Qiagen, #69989) followed by shaking for 2 min (twice) using TissueLyser II (Qiagen). Afterward, samples were centrifuged for 20 min (10,000 rpm, 4 °C). The supernatant was then collected and the concentration of the obtained protein lysates was measured using the Pierce BCA Protein Assay Kit (Thermo Fisher Scientific, #23227). Western blot was performed as previously described to visualize changes in AURKA protein levels.

Row | SMILES | NanoLuc-AURKA engagement in intact cells (in words) [1] | IC50 [2] [nM] | AURKA protein reduction in tumor (in words) [3] | AURKA protein levels in tumor (in words) ([3]; 4 and 8 h post-treatment) | AURKA protein levels in tumor (in words) ([3]; 24 h)
1 | Cc1cc(Nc2ccc(F)c(CC3(C(=O)N4CCC(CN5CCN(c6ccc(N7CCC(=O)NC7=O)cn6)CC5)CC4)CCN(Cc4cccc(Cl)c4F)CC3)n2)n[nH]1 [SK4454] | able to bind NanoLuc-AURKA in intact cells | ~20 | not observed | strongly reduced AURKA protein levels | return to baseline levels
2 | Cc1cc(Nc2ccc(F)c(CC3(C(=O)N4CCC(F)(CN5CCN(c6ccc(N7CCC(=O)NC7=O)cn6)CC5)CC4)CCN(Cc4cccc(Cl)c4F)CC3)n2)n[nH]1 [SK5527] | able to bind NanoLuc-AURKA in intact cells | ~20 | not observed | strongly reduced AURKA protein levels | return to baseline levels
